Source: PubChem BioAssay AID328 (DTP/NCI, 2004)
“And” between values parts separate entries of the source, which are not always exact repeats. Identical values can stand only once. Inconclusive results and toxic doses are left out. How the source made its calls: active means survival T/C of 150% or more; inactive means T/C below 125% in these data.

System: BDF1 mice, P388 leukemia ip, median survival T/C
Assay: NCI In Vivo Anticancer Drug Screen. Data for tumor model P388 Leukemia (intraperitoneal) in B6D2F1 (BDF1) mice
Conditions: endpoint: median survival time, higher = longer survival
In short: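 Reported as T/C, where T is the survival measurement in dosed animals and C the same measurement in vehicle controls.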

[1] = dose: 12.5 mg/kg/injection, schedule: Q01DX009 (ip), vehicle: water
[2] = dose: 100.0 mg/kg/injection, schedule: Q01DX009 (ip), vehicle: saline with Tween-80
[3] = dose: 100.0 mg/kg/injection, schedule: Q04DX003 (ip), vehicle: saline with Tween-80
[4] = dose: 200.0 mg/kg/injection, schedule: Q04DX003 (ip), vehicle: saline with Tween-80
[5] = dose: 400.0 mg/kg/injection, schedule: Q04DX003 (ip), vehicle: saline with Tween-80

Measured: T/C

C[C@H]1C(=O)O[C@@H]2CCN3CC=C(COC(=O)[C@](C)(O)[C@@]1(C)O)[C@H]23
inactive: dose: 3.13 mg/kg/injection, schedule: Q01DX010 (ip), vehicle: saline 100 % of control | dose: 6.2 mg/kg/injection, schedule: Q01DX009 (ip), vehicle: saline 111 % of control | dose: 6.25 mg/kg/injection, schedule: Q01DX010 (ip), vehicle: saline 100 % of control | dose: 12.5 mg/kg/injection, schedule: Q01DX009 (ip), vehicle: saline 122 % of control | [1] 109 % of control | dose: 12.5 mg/kg/injection, schedule: Q01DX010 (ip), vehicle: saline 104 % of control | dose: 25.0 mg/kg/injection, schedule: Q01DX009 (ip), vehicle: water 86 % of control | dose: 25.0 mg/kg/injection, schedule: Q01DX010 (ip), vehicle: saline 104 % of control | dose: 50.0 mg/kg/injection, schedule: Q01DX009 (ip), vehicle: water 118 % of control | dose: 75.0 mg/kg/injection, schedule: Q01DX009 (ip), vehicle: water 104 % of control

O=C1CN(N2C(=O)CSC2C23CC4CC(CC(C4)C2)C3)C(=O)CN1c1ccccc1 (centres undefined)
inactive: dose: 50.0 mg/kg/injection, schedule: Q01DX009 (ip), vehicle: saline with Tween-80 92 % of control | [2] 92 % of control

C1CC[N-]CC1.C1CC[N-]CC1.C1CC[N-]CC1.[Cl][Cr]([Cl])[Cl]
inactive: dose: 50.0 mg/kg/injection, schedule: Q01DX009 (ip), vehicle: Klucel (hydroxypropylcellulose) (HPC) 90 % of control | dose: 100.0 mg/kg/injection, schedule: Q01DX009 (ip), vehicle: Klucel (hydroxypropylcellulose) (HPC) 100 % of control

[NH-]C(CC(N)=O)C(=O)O.[NH-]C(CC(N)=O)C(=O)O.[Ni+2] (centres undefined)
inactive: dose: 3.12 mg/kg/injection, schedule: Q01DX009 (ip), vehicle: water 88 % of control | dose: 6.25 mg/kg/injection, schedule: Q01DX009 (ip), vehicle: water 100 % of control | [1] 94 % of control

OCC#CC#CCO
inactive: dose: 25.0 mg/kg/injection, schedule: Q01DX001 (ip), vehicle: saline 95 % of control | dose: 50.0 mg/kg/injection, schedule: Q01DX001 (ip), vehicle: saline 118 % of control | dose: 100.0 mg/kg/injection, schedule: Q01DX001 (ip), vehicle: saline 100 % of control and 109 % of control

NC(=S)c1ccc(N)nc1
inactive: [3] 103 % of control | [4] 110 % of control | [5] 110 % of control

O=C(/C=N/O)Nc1cc(Cl)ccc1Cl
inactive: [2] 95 % of control | [3] 100 % of control | dose: 200.0 mg/kg/injection, schedule: Q01DX009 (ip), vehicle: saline with Tween-80 90 % of control | [4] 100 % of control | dose: 400.0 mg/kg/injection, schedule: Q01DX009 (ip), vehicle: saline with Tween-80 90 % of control | [5] 100 % of control

Cc1cc(NCCN(C(C)C)C(C)C)nc(/N=C(\N)Nc2ccc(Cl)c(C(F)(F)F)c2)n1
inactive: dose: 3.8 mg/kg/injection, schedule: Q04DX003 (ip), vehicle: Klucel (hydroxypropylcellulose) (HPC) 104 % of control | dose: 4.68 mg/kg/injection, schedule: Q01DX009 (ip), vehicle: Klucel (hydroxypropylcellulose) (HPC) 95 % of control | dose: 5.8 mg/kg/injection, schedule: Q04DX003 (ip), vehicle: Klucel (hydroxypropylcellulose) (HPC) 95 % of control | dose: 9.37 mg/kg/injection, schedule: Q01DX009 (ip), vehicle: Klucel (hydroxypropylcellulose) (HPC) 100 % of control | dose: 18.75 mg/kg/injection, schedule: Q01DX009 (ip), vehicle: Klucel (hydroxypropylcellulose) (HPC) 104 % of control | dose: 20.0 mg/kg/injection, schedule: Q04DX003 (ip), vehicle: Klucel (hydroxypropylcellulose) (HPC) 116 % of control | dose: 26.0 mg/kg/injection, schedule: Q01DX009 (ip), vehicle: Klucel (hydroxypropylcellulose) (HPC) 95 % of control | dose: 26.0 mg/kg/injection, schedule: Q04DX003 (ip), vehicle: Klucel (hydroxypropylcellulose) (HPC) 106 % of control | dose: 40.0 mg/kg/injection, schedule: Q04DX003 (ip), vehicle: Klucel (hydroxypropylcellulose) (HPC) 106 % of control and 116 % of control | dose: 60.0 mg/kg/injection, schedule: Q04DX003 (ip), vehicle: Klucel (hydroxypropylcellulose) (HPC) 123 % of control
